Measurements: publication PMC9972151, “Phase I study of plitidepsin in combination with bortezomib and dexamethasone in patients with relapsed/refractory multiple myeloma” (Cancer Medicine, 2022)
Where “and” joins values, the source holds several entries; their conditions need not be identical. Identical values can stand only once. Like-named read-outs stand apart in the source and are kept apart here. Numbered stars: 1 amine (or outer) side, 2 acyl side, 3 side chain; on linkers, the order of the positions; unused ones are H or OH. Bridge positions count the residues as written; N and C are the ends. Square brackets hold non-standard residues; d marks the D form. Peptide text beside a SMILES is read from it. * marks the point of attachment. X1 = CC[C@H](C)[C@@H](N[*:1])[C@@H](O)CC(=O)O[C@H](C(=O)[C@H](C)C(=O)[*:2])C(C)C; NMeY = CN[C@@H](Cc1ccc(O)cc1)C(=O)O; dNMeL = CN[C@H](CC(C)C)C(=O)O; Pyruvoyl = CC(=O)C(=O)*

Tests used:
MM [1] = settings: cited from earlier work
Excerpt: Results of the VISTA trial were further supported by those of phase II trials: RETRIEVE (ORR: 40%) and SUMMIT (ORR: 35%, including minimal response while on BTZ treatment), and of the phase III APEX trial (crossover from DXM to BTZ), in which the overall and complete response rates with BTZ were 43% and 9%, respectively.[9], [10], [11]

[2] = BTZ plasma pharmacokinetics, non-compartmental; type: in vivo, human; settings: mean (SD); for C max: NCA, UPLC-MS/MS
Protocol: (§1) Sixteen samples were collected from each patient to quantify plitidepsin whole blood and BTZ plasma concentrations at baseline and at different times 1 week after the first infusion. In patients treated at the RD, 15 additional samples were taken 1 week after the second plitidepsin infusion.
(§2) Continuous variables were presented with summary statistics and categorical variables in frequency tables. Time‐to‐event variables were calculated using Kaplan–Meier approach. Binomial exact distribution was used to calculate 95% confidence intervals (95%CIs) for categorical variables. Individual PK parameters were tabulated. Statistical analyses were performed using SAS v.9.2, (SAS Institute Inc), and PK non‐compartmental analysis (NCA) was performed using Phoenix WinNonlin v.6.3.
Both drugs (plitidepsin and BTZ) were measured by validated liquid extraction methods followed by ultra-performance liquid chromatography tandem mass-spectrometry detection (Dynakin, Derio, Spain). The calibration range for plitidepsin and BTZ was 0.25-100 ng/mL, and 0.1-5 ng/mL, respectively.

MM [3] = settings: phase III VISTA trial; single-agent BTZ re-treatment; cited from earlier work
Excerpt: The feasibility of re‐treating MM patients with single‐agent bortezomib (BTZ) was first confirmed in the phase III VISTA trial,[8] where 47% of patients pre‐treated with BTZ‐based regimens during earlier phases of the disease responded again to the drug alone. This was further supported by the results of the phase II RETRIEVE and SUMMIT trials and the phase III APEX trial.[9], [10], [11]

[4] = design: method as in Moreau et al[25]; settings: BTZ 1.3 mg/m^2 subcutaneously, reference study in MM patients; mean (SD), n = 10; ref Moreau et al[25]; cited from earlier work
[5] = Plitidepsin whole blood pharmacokinetics, non-compartmental; type: in vivo; settings: human, iv, mean (SD); for Cmax: NCA, UPLC-MS/MS
Protocol: as §1, §2
Both drugs (plitidepsin and BTZ) were measured by validated liquid extraction methods followed by ultra-performance liquid chromatography tandem mass-spectrometry detection (Dynakin, Derio, Spain). The calibration range for plitidepsin and BTZ was 0.25-100 ng/mL, and 0.1-5 ng/mL, respectively. The reference for plitidepsin PK results was a population-PK model of plitidepsin (data from 303 patients treated in seven phase II studies and one phase III study), which was used to simulate exposure in whole blood after one 3-hour i.v. infusion of 5.0 mg/m² of plitidepsin in patients with similar characteristics compared to those treated in this study (unpublished data). The reference for BTZ PK results was a phase I study in patients with MM (see Moreau et al (25)).

[6] = system: MM cell lines and primary MM cells; settings: cited from earlier work
Excerpt: The positive results observed with plitidepsin and BTZ against MM (both as single agents and in combination with DXM), their different mechanisms of action, and the potential synergism of the triple combination warranted the exploration of the efficacy of plitidepsin plus BTZ and DXM in a clinical trial in patients with relapsed and/or refractory MM.

[7] = patients with MM treated with plitidepsin in other trials; ref unpublished data; cited from earlier work
Excerpt: The plitidepsin concentrations found in this study fitted within the 90% prediction interval simulated for patients with MM, although most were above the 50th pe ...

MM [8] = system: MM; design: method as in PMID 23950178, PMID 28642620, PMID 24429336, PMID 28847998, PMID 27091875; settings: named drug in a BTZ and DXM-containing combination; cited from earlier work
[9] = phase III APEX trial (crossover from DXM to BTZ)
[10] = Dose level 1 4.0/1.0/40.0, Day 1 of Cycle 1, NCA, n = 6
[11] = Dose level 2 4.0/1.3/40.0, Day 1 of Cycle 1, NCA, n = 3
[12] = Dose level 3 (RD cohort) 5.0/1.3/40.0, Day 1 of Cycle 1, NCA, n = 9

Question: With CC(C)C[C@H](NC(=O)[C@H](Cc1ccccc1)NC(=O)c1cnccn1)B(O)O [BTZ, bortezomib] as the compound, how does the ORR (MM [1]; phase II RETRIEVE trial) read?
Answer: Its ORR is 40%.

Question: What about the ORR (MM [1]; phase II SUMMIT trial, including minimal response while on BTZ treatment) of the same compound?
Answer: The ORR was 35%.

Question: And the Complete response rate (MM [1]; [9])?
Answer: Its Complete response rate is 9%.

Question: And the Overall response rate (MM [1]; [9])?
Answer: Its Overall response rate is 43%.

Question: What about the “AUC (time zero to infinity)” value [2, 10] of the same compound?
Answer: Its value is 77.7 (17.9) h*μg/L.

Question: What about the “CL/F (total clearance after extravascular administration)” value (shortened to “CL/F”) [2, 10] of the same compound?
Answer: The value was 23.4 (6.79) L/h.

Question: What about the “HL (terminal half-life)” value [2, 10] of the same compound?
Answer: Its value is 39.1 (9.22) h.

Question: What about the “V z /F (apparent volume of distribution during terminal phase after extravascular administration)” value [2, 10] of the same compound?
Answer: Its value is 1308 (431) L.

Question: What about the C max ([2]; Dose level 1 4.0/1.0/40.0, Day 1 of Cycle 1, subcutaneous bolus, n = 6) of the same compound?
Answer: The C max was 11.0 (7.71) μg/L.

Question: And the “AUC (time zero to infinity)” value [2, 11]?
Answer: The value was 134 (46.8) h*μg/L.

Question: What about the “CL/F” value [2, 11] of the same compound?
Answer: Its value is 17.9 (6.03) L/h.

Question: And the “HL (terminal half-life)” value [2, 11]?
Answer: Its value is 51.5 (41.4) h.

Question: And the “V z /F (apparent volume of distribution during terminal phase after extravascular administration)” value [2, 11]?
Answer: Its value is 1208 (52.4) L.

Question: What about the C max ([2]; Dose level 2 4.0/1.3/40.0, Day 1 of Cycle 1, subcutaneous bolus, n = 3) of the same compound?
Answer: Its C max is 16.9 (4.21) μg/L.

Question: And the “AUC (time zero to infinity)” value [2, 12]?
Answer: The value was 138 (88.6) h*μg/L.

Question: And the “CL/F” value [2, 12]?
Answer: The value was 24.9 (19.2) L/h.

Question: And the “HL (terminal half-life)” value [2, 12]?
Answer: Its value is 49.0 (17.8) h.

Question: What about the “V z /F (apparent volume of distribution during terminal phase after extravascular administration)” value [2, 12] of the same compound?
Answer: Its value is 1658 (1457) L.

Question: And the C max ([2]; Dose level 3 (RD cohort) 5.0/1.3/40.0, Day 1 of Cycle 1, subcutaneous bolus, n = 9)?
Answer: The C max was 17.0 (8.87) μg/L.

Question: And the “Patients pre-treated with BTZ-based regimens who responded again to the drug alone” value (MM [3])?
Answer: The value was 47%.

Question: And the “AUC (time zero to infinity)” value [4]?
Answer: The value was 151 (53.5) h*μg/L.

Question: What about the C max [4] of the same compound?
Answer: The C max was 16.5 μg/L and 16.5 (8.4) μg/L.

Question: What about the “CL/F” value [4] of the same compound?
Answer: Its value is 16.6 L/h and 16.6 (5.8) L/h.

Question: And the “HL (terminal half-life)” value [4]?
Answer: Its value is 65.7 (46.5) h.

Question: And the “V z /F (apparent volume of distribution during terminal phase after extravascular administration)” value [4]?
Answer: Its value is 1330 L and 1330 (578) L.

Question: Which Cmax ([5]; Dose level 1 4.0/1.0/40.0, Day 1 of Cycle 1, 3-h i.v. infusion, n = 5) does the source give for CC[C@H](C)[C@H]1NC(=O)[C@@H](NC(=O)[C@@H](CC(C)C)N(C)C(=O)[C@@H]2CCCN2C(=O)C(C)=O)[C@@H](C)OC(=O)[C@H](Cc2ccc(OC)cc2)N(C)C(=O)[C@@H]2CCCN2C(=O)[C@H](CC(C)C)NC(=O)[C@@H](C)C(=O)[C@H](C(C)C)OC(=O)C[C@@H]1O [Plitidepsin, plitidepsin] (Pyruvoyl-P[dNMeL]T[X1]LP[NMeY](Me); ester 3-C (inferred); N-terminus assumed) here?
Answer: Its Cmax is 0.0838 µg/mL.

Question: And the AUC(0-inf) ([5]; Dose level 1 4.0/1.0/40.0, Day 1 of Cycle 1, NCA, n = 5, read-out: AUC (time zero to infinity))?
Answer: Its AUC(0-inf) is 1.26 µg·h/mL.

Question: What about the clearance ([5]; Dose level 1 4.0/1.0/40.0, Day 1 of Cycle 1, NCA, n = 5, read-out: CL (total clearance) (converted)) of the same compound?
Answer: The clearance was 94.5 mL/min.

Question: And the half-life ([5]; Dose level 1 4.0/1.0/40.0, Day 1 of Cycle 1, NCA, n = 5, read-out: HL (terminal half-life) (converted))?
Answer: The half-life was 40.1 h.

Question: And the Vd ([5]; Dose level 1 4.0/1.0/40.0, Day 1 of Cycle 1, NCA, n = 5, read-out: V ss (volume of distribution at steady-state))?
Answer: Its Vd is 169 L.

Question: What about the Vd ([5]; Dose level 1 4.0/1.0/40.0, Day 1 of Cycle 1, NCA, n = 5, read-out: V z (apparent volume of distribution during terminal phase)) of the same compound?
Answer: Its Vd is 185 L.

Question: And the Cmax ([5]; Dose level 2 4.0/1.3/40.0, Day 1 of Cycle 1, 3-h i.v. infusion, n = 3)?
Answer: Its Cmax is 0.117 µg/mL.

Question: And the AUC(0-inf) ([5]; Dose level 2 4.0/1.3/40.0, Day 1 of Cycle 1, NCA, n = 3, read-out: AUC (time zero to infinity))?
Answer: Its AUC(0-inf) is 1.42 µg·h/mL.

Question: And the clearance ([5]; Dose level 2 4.0/1.3/40.0, Day 1 of Cycle 1, NCA, n = 3, read-out: CL (total clearance) (converted))?
Answer: The clearance was 93.2 mL/min.

Question: And the half-life ([5]; Dose level 2 4.0/1.3/40.0, Day 1 of Cycle 1, NCA, n = 3, read-out: HL (terminal half-life) (converted))?
Answer: The half-life was 46.2 h.

Question: And the Vd ([5]; Dose level 2 4.0/1.3/40.0, Day 1 of Cycle 1, NCA, n = 3, read-out: V ss (volume of distribution at steady-state))?
Answer: The Vd was 192 L.

Question: And the Vd ([5]; Dose level 2 4.0/1.3/40.0, Day 1 of Cycle 1, NCA, n = 3, read-out: V z (apparent volume of distribution during terminal phase))?
Answer: Its Vd is 394 L.

Question: And the Cmax ([5]; Dose level 3 (RD cohort) 5.0/1.3/40.0, Day 1 of Cycle 1, 3-h i.v. infusion, n = 9)?
Answer: The Cmax was 0.0717 µg/mL.

Question: And the AUC(0-inf) ([5]; Dose level 3 (RD cohort) 5.0/1.3/40.0, Day 1 of Cycle 1, NCA, n = 9, read-out: AUC (time zero to infinity))?
Answer: The AUC(0-inf) was 1.06 µg·h/mL.

Question: And the clearance ([5]; Dose level 3 (RD cohort) 5.0/1.3/40.0, Day 1 of Cycle 1, NCA, n = 9, read-out: CL (total clearance) (converted))?
Answer: The clearance was 157 mL/min.

Question: And the half-life ([5]; Dose level 3 (RD cohort) 5.0/1.3/40.0, Day 1 of Cycle 1, NCA, n = 9, read-out: HL (terminal half-life) (converted))?
Answer: Its half-life is 44.6 h.

Question: What about the Vd ([5]; Dose level 3 (RD cohort) 5.0/1.3/40.0, Day 1 of Cycle 1, NCA, n = 9, read-out: V ss (volume of distribution at steady-state)) of the same compound?
Answer: The Vd was 341 L.

Question: What about the Vd ([5]; Dose level 3 (RD cohort) 5.0/1.3/40.0, Day 1 of Cycle 1, NCA, n = 9, read-out: V z (apparent volume of distribution during terminal phase)) of the same compound?
Answer: The Vd was 671 L.

Question: What about the “In vitro activity of the combination of plitidepsin with BTZ or DXM” value [6] of the same compound?
Answer: The value was “synergistic activity”.

Question: What about the “Median CL” value [7] of the same compound?
Answer: The value was 4.4 L/h.

Question: And the Median peripheral volume [7]?
Answer: Its Median peripheral volume is 513 L.

Question: With Nc1cccc2c1CN(C1CCC(=O)NC1=O)C2=O (stereo not drawn) [lenalidomide] as the compound, how does the “Median DoR” value (MM [8]) read?
Answer: The value was 8.7 months.

Question: With Cc1[nH]c2ccccc2c1CCNCc1ccc(/C=C/C(=O)NO)cc1 [panobinostat] as the compound, how does the “Median DoR” value (MM [8]) read?
Answer: The value was 6.0 months.

Question: Which “Median DoR” value (MM [8]) does the source give for Nc1cccc2c1C(=O)N(C1CCC(=O)NC1=O)C2=O (stereo not drawn) [pomalidomide] here?
Answer: The value was 7.4 months.

Question: With CC1(C)CCC(CN2CCN(c3ccc(C(=O)NS(=O)(=O)c4ccc(NCC5CCOCC5)c([N+](=O)[O-])c4)c(Oc4cnc5[nH]ccc5c4)c3)CC2)=C(c2ccc(Cl)cc2)C1 [venetoclax] as the compound, how does the “Median DoR” value (MM [8]) read?
Answer: The value was 9.7 months.

Question: With elotuzumab as the compound, how does the “Median DoR” value (MM [8]) read?
Answer: Its value is 11.4 months.
